Measured values: US20160303040A1, “INJECTABLE PHARMACEUTICAL COMPOSITIONS COMPRISING PROSTACYCLIN” (RIGSHOSPITALET, priority 2013, published 2016)

Columns and labels:
[1] = 10 days short term stability study on iloprost standards diluted with isotonic sodium chloride; type: physicochemical; details: stored at 5° C., after dilution with isotonic sodium chloride solution
Experimental: A: A concentration iloprost equal to 20 μg/ml (was used for the optimization of the HPLC procedure, UV 210 nm)
B: 0.9% sodium chloride in milliQ water (0.9 g NaCl in 100 ml water)
C: 100 μl of A and 900 μl of B: iloprost concentration equal to 2 μg/ml
A 10 days short term stability study was conducted on the standards The test solutions were prepared 11 May 2012 and analysed 11 May 2012, n=2, 15 May 2012, and 21 May 2012 and finally […]. Between the days of analysis the samples were stored at 5° C.

[2] = cited from earlier work

short term stability [1]: No indication on major instability
SMILES: CC#CCC(C)[C@H](O)/C=C/[C@@H]1[C@H]2C/C(=C/CCCC(=O)O)C[C@H]2C[C@H]1O (stereo partly drawn) [Iloprost, 5-{(E)-(1S,5S,6R,7R)-7-hydroxy-6[(E)-(3S,4RS)-3-hydroxy-4-methyl-1-octen-6-inyl]-bi-cyclo[3.3.0]octan-3-ylidene}pentanoic acid]
solubility in water [2]: very slightly soluble
